# From ChEMBL document CHEMBL1136062 (2002)
# Experiments:
# Type in all cases: functional
# Staphylococcus aureus [1] = experiment: Tested in vitro for its antibacterial activity against methicillin resistant Staphylococcus aureus (COL)
# Enterococcus faecium [2] = experiment: Tested in vitro for its antibacterial activity against vancomycin resistant Enterococcus faecium (MB5244)
# Staphylococcus aureus [3] = experiment: Tested in vitro for its antibacterial activity against methicillin sensitive Staphylococcus aureus (MB2985)
# Enterococcus faecium [4] = experiment: Tested in vitro for its antibacterial activity against vancomycin resistant Enterococcus faecium (CL4931)
# Staphylococcus aureus [5] = experiment: In vitro antibacterial activity against vancomycin intermediate resistant Staphylococcus aureus (CL5705)
# Enterococcus faecalis [6] = experiment: Tested in vitro for its antibacterial activity against vancomycin resistant Enterococcus faecalis (MB4877)
# Enterococcus faecalis [7] = experiment: Tested in vitro for its antibacterial activity against vancomycin sensitive Enterococcus faecalis (MB2864)
# Enterococcus faecium [8] = experiment: Tested in vitro for its antibacterial activity against vancomycin sensitive Enterococcus faecium (RLA1)
# Staphylococcus aureus [9] = experiment: In vitro antibacterial activity against vancomycin intermediate resistant Staphylococcus aureus (CL5706)
# Staphylococcus aureus [10] = experiment: Tested in vitro for its antibacterial activity against methicillin resistant Staphylococcus aureus (MH76)
# Staphylococcus aureus [11] = experiment: Tested in vitro for its antibacterial activity against methicillin resistant Staphylococcus aureus (Mh76)
Structure (SMILES),MIC (Staphylococcus aureus [1]) [µg/mL],MIC (Enterococcus faecium [2]) [µg/mL],MIC (Staphylococcus aureus [3]) [µg/mL],MIC (Enterococcus faecium [4]) [µg/mL],MIC (Staphylococcus aureus [5]) [µg/mL],MIC (Enterococcus faecalis [6]) [µg/mL],MIC (Enterococcus faecalis [7]) [µg/mL],MIC (Enterococcus faecium [8]) [µg/mL],MIC (Staphylococcus aureus [9]) [µg/mL],MIC (Staphylococcus aureus [10]) [µg/mL],MIC (Staphylococcus aureus [11]) [µg/mL]
CNCC1OC(Oc2c3cc4cc2Oc2ccc(cc2Cl)[C@@H](O)[C@@H](NC(=O)[C@@H](CC(C)C)NC)C(=O)N[C@@H](CC(N)=O)C(=O)N[C@H]4C(=O)N[C@H]2C(=O)N[C@H](C(=O)N[C@H](C(=O)O)c4cc(O)cc(O)c4-c4cc2ccc4O)[C@H](O)c2ccc(c(Cl)c2)O3)C(OC2CC(C)(NCc3ccc(OCc4ccc(Cl)c(Cl)c4)cc3)C(O)C(C)O2)C(O)C1O (some centres undefined),0.12,1,≤ 0.03,32,1,4,0.25,0.03,0.25,0.12,
CN[C@H](CC(C)C)C(=O)N[C@H]1C(=O)N[C@@H](CC(N)=O)C(=O)N[C@H]2C(=O)N[C@H]3C(=O)N[C@H](C(=O)N[C@H](C(=O)O)c4cc(O)cc(O)c4-c4cc3ccc4O)[C@H](O)c3ccc(c(Cl)c3)Oc3cc2cc(c3OC2OC(C[N+](C)(C)CCN(C)C)C(O)C(O)C2OC2CC(C)(NCc3ccc(OCc4ccc(Cl)c(Cl)c4)cc3)C(O)C(C)O2)Oc2ccc(cc2Cl)[C@H]1O (some centres undefined),2,8,2,> 64,2,> 64,4,1,4,,2
CN[C@H](CC(C)C)C(=O)N[C@H]1C(=O)N[C@@H](CC(N)=O)C(=O)N[C@H]2C(=O)N[C@H]3C(=O)N[C@H](C(=O)N[C@H](C(=O)O)c4cc(O)cc(O)c4-c4cc3ccc4O)[C@H](O)c3ccc(c(Cl)c3)Oc3cc2cc(c3O[C@@H]2O[C@H](CO)[C@@H](O)[C@H](O)[C@H]2O[C@H]2C[C@](C)(N)[C@H](O)[C@H](C)O2)Oc2ccc(cc2Cl)[C@H]1O [VANCOMYCIN],,16,,2050,,2050,,,8,,
CN[C@H](CC(C)C)C(=O)N[C@H]1C(=O)N[C@@H](CC(N)=O)C(=O)N[C@H]2C(=O)N[C@H]3C(=O)N[C@H](C(=O)N[C@H](C(=O)O)c4cc(O)cc(O)c4-c4cc3ccc4O)[C@H](O)c3ccc(c(Cl)c3)Oc3cc2cc(c3OC2OC(C[N+](C)(C)C)C(O)C(O)C2OC2CC(C)(NCc3ccc(OCc4ccc(Cl)c(Cl)c4)cc3)C(O)C(C)O2)Oc2ccc(cc2Cl)[C@H]1O (some centres undefined),0.5,1,0.5,> 64,2,16,1,0.5,2,0.5,
CN[C@H](CC(C)C)C(=O)N[C@H]1C(=O)N[C@@H](CC(N)=O)C(=O)N[C@H]2C(=O)N[C@H]3C(=O)N[C@H](C(=O)N[C@H](C(=O)O)c4cc(O)cc(O)c4-c4cc3ccc4O)[C@H](O)c3ccc(c(Cl)c3)Oc3cc2cc(c3OC2OC(CN(C)C)C(O)C(O)C2OC2CC(C)(NCc3ccc(OCc4ccc(Cl)c(Cl)c4)cc3)C(O)C(C)O2)Oc2ccc(cc2Cl)[C@H]1O (some centres undefined),0.5,1,≤ 0.03,32,1,16,1,≤ 0.03,0.5,0.25,
CN[C@H](CC(C)C)C(=O)N[C@H]1C(=O)N[C@@H](CC(N)=O)C(=O)N[C@H]2C(=O)N[C@H]3C(=O)N[C@H](C(=O)N[C@H](C(=O)O)c4cc(O)cc(O)c4-c4cc3ccc4O)[C@H](O)c3ccc(c(Cl)c3)Oc3cc2cc(c3OC2OC(C[N+]34CCN(CC3)CC4)C(O)C(O)C2OC2CC(C)(NCc3ccc(OCc4ccc(Cl)c(Cl)c4)cc3)C(O)C(C)O2)Oc2ccc(cc2Cl)[C@H]1O (some centres undefined),1,1,1,> 32,2,8,2,0.5,2,1,
CN[C@H](CC(C)C)C(=O)N[C@H]1C(=O)N[C@@H](CC(N)=O)C(=O)N[C@H]2C(=O)N[C@H]3C(=O)N[C@H](C(=O)N[C@H](C(=O)O)c4cc(O)cc(O)c4-c4cc3ccc4O)[C@H](O)c3ccc(c(Cl)c3)Oc3cc2cc(c3OC2OC(C[N+](C)(C)CCO)C(O)C(O)C2OC2CC(C)(NCc3ccc(OCc4ccc(Cl)c(Cl)c4)cc3)C(O)C(C)O2)Oc2ccc(cc2Cl)[C@H]1O (some centres undefined),1,4,2,> 64,2,8,2,0.5,2,1,
CN[C@H](CC(C)C)C(=O)N[C@H]1C(=O)N[C@@H](CC(N)=O)C(=O)N[C@H]2C(=O)N[C@H]3C(=O)N[C@H](C(=O)N[C@H](C(=O)O)c4cc(O)cc(O)c4-c4cc3ccc4O)[C@H](O)c3ccc(c(Cl)c3)Oc3cc2cc(c3OC2OC(C[N+](C)(C)Cc3ccccc3)C(O)C(O)C2OC2CC(C)(NCc3ccc(OCc4ccc(Cl)c(Cl)c4)cc3)C(O)C(C)O2)Oc2ccc(cc2Cl)[C@H]1O (some centres undefined),0.5,1,0.25,> 64,1,16,2,0.25,1,0.25,
